# System: MV-4-11 cells
# Test: Gene expression microarray analysis (Affymetrix PrimeView) and GSEA
# Type: cell-based, human
# Parameters: RFU PODN (11730768_x_at) / Fold change /veh PODN (11730768_x_at) / RFU LINC00158 (11744669_a_at) / Fold change /veh LINC00158 (11744669_a_at) / RFU DUSP10 (11751237_a_at) / Fold change /veh DUSP10 (11751237_a_at) / RFU ID3 (11757404_x_at) / Fold change /veh ID3 (11757404_x_at) / RFU PLEKHG5 (11737974_s_at) / Fold change /veh PLEKHG5 (11737974_s_at) / RFU LRRC4B (11730491_at) / Fold change /veh LRRC4B (11730491_at) / RFU GIMAP4 (11747438_a_at) / Fold change /veh GIMAP4 (11747438_a_at) / RFU KRT8 (11758183_x_at) / Fold change /veh KRT8 (11758183_x_at) / RFU CNN1 (11734310_a_at) / Fold change /veh CNN1 (11734310_a_at) / RFU VPS37D (11726825_at) / Fold change /veh VPS37D (11726825_at) / RFU C10orf10 (11716522_x_at) / Fold change /veh C10orf10 (11716522_x_at) / RFU KIR2DL2 /// KIR2DL4 /// KIR2DL5A /// KIR2DL5B /// KIR2DS1 /// KIR2DS2 /// KIR2DS3 /// KIR2DS4 /// KIR3DL3 /// KIR3DL3 /// KIR3DS1 (11738374_at) / Fold change /veh KIR2DL2 /// KIR2DL4 /// KIR2DL5A /// KIR2DL5B /// KIR2DS1 /// KIR2DS2 /// KIR2DS3 /// KIR2DS4 /// KIR3DL3 /// KIR3DL3 /// KIR3DS1 (11738374_at) / RFU C1QL1 (11718748_at) / Fold change /veh C1QL1 (11718748_at) / RFU TMPRSS4 (11747572_a_at) / Fold change /veh TMPRSS4 (11747572_a_at) / RFU HAMP (11756126_x_at) / Fold change /veh HAMP (11756126_x_at) / RFU RNFT2 (11725882_a_at) / Fold change /veh RNFT2 (11725882_a_at) / RFU NR4A2 (11747474_a_at) / Fold change /veh NR4A2 (11747474_a_at) / RFU ABCC12 (11746883_a_at) / Fold change /veh ABCC12 (11746883_a_at) / RFU TMEM136 (11760407_x_at) / Fold change /veh TMEM136 (11760407_x_at) / RFU CLDN22 /// WWC2 (11732394_at) / Fold change /veh CLDN22 /// WWC2 (11732394_at) / RFU HLA-DPB1 (11760878_x_at) / Fold change /veh HLA-DPB1 (11760878_x_at) / RFU SPINT1 (11716480_a_at) / Fold change /veh SPINT1 (11716480_a_at) / RFU GAP43 (11754022_s_at) / Fold change /veh GAP43 (11754022_s_at) / RFU A4GNT (11735810_at) / Fold change /veh A4GNT (11735810_at) / RFU PRB3 (11715151_x_at) / Fold change /veh PRB3 (11715151_x_at) / RFU TUBB4B (11761932_at) / Fold change /veh TUBB4B (11761932_at) / RFU CAPN14 (11732068_a_at) / Fold change /veh CAPN14 (11732068_a_at) / RFU TMCC2 (11721928_a_at) / Fold change /veh TMCC2 (11721928_a_at) / RFU IRGQ (11745062_a_at) / Fold change /veh IRGQ (11745062_a_at) / RFU FAM174B (11720279_a_at) / Fold change /veh FAM174B (11720279_a_at) / RFU TMPRSS4 (11748680_a_at) / Fold change /veh TMPRSS4 (11748680_a_at) / RFU FAM212B (11763350_a_at) / Fold change /veh FAM212B (11763350_a_at) / RFU PLEKHG5 (11743358_a_at) / Fold change /veh PLEKHG5 (11743358_a_at) / RFU ZSCAN30 (11745921_a_at) / Fold change /veh ZSCAN30 (11745921_a_at) / RFU CMKLR1 (11741424_a_at) / Fold change /veh CMKLR1 (11741424_a_at) / RFU LOC101060620 /// MAPK8IP1 (11723275_at) / Fold change /veh LOC101060620 /// MAPK8IP1 (11723275_at) / RFU SPTSSB (11747773_x_at) / Fold change /veh SPTSSB (11747773_x_at) / RFU PRSS12 (11739890_at) / Fold change /veh PRSS12 (11739890_at) / RFU BIN1 (11741810_x_at) / Fold change /veh BIN1 (11741810_x_at) / RFU WNT11 (11732464_a_at) / Fold change /veh WNT11 (11732464_a_at) / RFU C10orf10 (11716521_a_at) / Fold change /veh C10orf10 (11716521_a_at) / RFU C5orf56 (11738089_at) / Fold change /veh C5orf56 (11738089_at) / RFU CYB561 (11721691_x_at) / Fold change /veh CYB561 (11721691_x_at) / RFU ANKRD19P (11752326_a_at) / Fold change /veh ANKRD19P (11752326_a_at) / RFU OR2T12 /// OR2T33 /// OR2T8 (11738714_s_at) / Fold change /veh OR2T12 /// OR2T33 /// OR2T8 (11738714_s_at) / RFU VCAN (11748164_a_at) / Fold change /veh VCAN (11748164_a_at) / RFU JSRP1 (11732532_at) / Fold change /veh JSRP1 (11732532_at) / RFU KRTAP10-11 (11738290_x_at) / Fold change /veh KRTAP10-11 (11738290_x_at) / RFU MYO3A (11730013_a_at) / Fold change /veh MYO3A (11730013_a_at) / RFU EBF3 (11725865_a_at) / Fold change /veh EBF3 (11725865_a_at) / RFU CAMK2N1 (11719241_x_at) / Fold change /veh CAMK2N1 (11719241_x_at) / RFU C5orf56 (11738088_a_at) / Fold change /veh C5orf56 (11738088_a_at) / RFU OLFML3 (11715873_a_at) / Fold change /veh OLFML3 (11715873_a_at) / RFU LOC100653217 /// NTM (11731650_a_at) / Fold change /veh LOC100653217 /// NTM (11731650_a_at) / RFU MAPK11 (11762145_a_at) / Fold change /veh MAPK11 (11762145_a_at) / RFU FIZ1 (11724087_x_at) / Fold change /veh FIZ1 (11724087_x_at) / RFU OASL (11726364_x_at) / Fold change /veh OASL (11726364_x_at) / RFU SOX15 (11748057_x_at) / Fold change /veh SOX15 (11748057_x_at) / RFU CD79A (11719716_a_at) / Fold change /veh CD79A (11719716_a_at) / RFU HIST1H1D (11736915_at) / Fold change /veh HIST1H1D (11736915_at) / RFU CASKIN2 (11723855_a_at) / Fold change /veh CASKIN2 (11723855_a_at) / RFU LOC730098 (11760151_x_at) / Fold change /veh LOC730098 (11760151_x_at) / RFU OR4N2 (11742367_at) / Fold change /veh OR4N2 (11742367_at) / RFU PRRT2 (11749266_a_at) / Fold change /veh PRRT2 (11749266_a_at) / RFU SNX32 (11753110_a_at) / Fold change /veh SNX32 (11753110_a_at) / RFU CDHR5 (11726645_a_at) / Fold change /veh CDHR5 (11726645_a_at) / RFU RCAN1 (11760418_a_at) / Fold change /veh RCAN1 (11760418_a_at) / RFU FAM167A (11723789_a_at) / Fold change /veh FAM167A (11723789_a_at) / RFU FAM26E (11764081_at) / Fold change /veh FAM26E (11764081_at) / RFU ISYNA1 (11749810_s_at) / Fold change /veh ISYNA1 (11749810_s_at) / RFU ACY1 (11761880_at) / Fold change /veh ACY1 (11761880_at) / RFU 11764098_at / Fold change /veh 11764098_at / RFU SAMD14 (11745864_x_at) / Fold change /veh SAMD14 (11745864_x_at) / RFU NPB (11741838_a_at) / Fold change /veh NPB (11741838_a_at) / RFU TMPRSS6 (11731388_a_at) / Fold change /veh TMPRSS6 (11731388_a_at) / RFU KRTAP10-2 (11738614_at) / Fold change /veh KRTAP10-2 (11738614_at) / RFU ARHGAP8 /// PRR5-ARHGAP8 (11727945_x_at) / Fold change /veh ARHGAP8 /// PRR5-ARHGAP8 (11727945_x_at) / RFU KRTAP5-7 /// NADSYN1 (11734609_at) / Fold change /veh KRTAP5-7 /// NADSYN1 (11734609_at) / RFU RASL12 (11751679_a_at) / Fold change /veh RASL12 (11751679_a_at) / RFU CDKN2B (11736163_a_at) / Fold change /veh CDKN2B (11736163_a_at) / RFU PRF1 (11729649_at) / Fold change /veh PRF1 (11729649_at) / RFU, ZNF638 /// ZNF638-IT1 / Fold change vs veh, ZNF638 /// ZNF638-IT1 / RFU, PANK3 / Fold change vs veh, PANK3 / RFU, SH3YL1 / Fold change vs veh, SH3YL1 / RFU, ZEB2 / Fold change vs veh, ZEB2 / RFU, NRIP1 / Fold change vs veh, NRIP1 / RFU, PTTG1IP / Fold change vs veh, PTTG1IP / RFU, CAPN2 / Fold change vs veh, CAPN2 / RFU, MED14 / Fold change vs veh, MED14 / RFU, SNORA58 / Fold change vs veh, SNORA58 / RFU, C1orf63 / Fold change vs veh, C1orf63 / RFU, LRRFIP1 / Fold change vs veh, LRRFIP1 / RFU, NDUFAF7 / Fold change vs veh, NDUFAF7 / RFU, SLC12A2 / Fold change vs veh, SLC12A2 / RFU, IBTK / Fold change vs veh, IBTK / RFU, ESF1 / Fold change vs veh, ESF1 / Fold change vs veh, TMEM50B / RFU, TAOK1 / Fold change vs veh, TAOK1 / RFU, ACBD3 / Fold change vs veh, ACBD3 / RFU, TMA16 / Fold change vs veh, TMA16 / RFU, RWDD3 / Fold change vs veh, RWDD3 / RFU, BCAT1 / Fold change vs veh, BCAT1 / RFU, EDEM3 / Fold change vs veh, EDEM3 / RFU, TMEM33 / Fold change vs veh, TMEM33 / RFU, WDR75 / Fold change vs veh, WDR75 / RFU, AHCTF1 / Fold change vs veh, AHCTF1 / RFU, TFRC / Fold change vs veh, TFRC / RFU, ZDHHC17 / Fold change vs veh, ZDHHC17 / RFU, NOM1 / Fold change vs veh, NOM1 / RFU, ARL8B / Fold change vs veh, ARL8B / RFU, ZBTB11 / Fold change vs veh, ZBTB11 / RFU, TAMM41 / Fold change vs veh, TAMM41 / RFU, KIAA1704 /// LOC100996395 / Fold change vs veh, KIAA1704 /// LOC100996395 / RFU, ING1 / Fold change vs veh, ING1 / RFU, TRMT61B / Fold change vs veh, TRMT61B / RFU, FUBP3 / Fold change vs veh, FUBP3 / RFU, TP53 / Fold change vs veh, TP53 / RFU, TNKS2 / Fold change vs veh, TNKS2 / RFU, ZFP14 / Fold change vs veh, ZFP14 / RFU, ACTR2 / Fold change vs veh, ACTR2 / RFU, PPP3R1 / Fold change vs veh, PPP3R1 / RFU, PIK3R1 / Fold change vs veh, PIK3R1 / RFU, HNRNPA1 / Fold change vs veh, HNRNPA1 / RFU, RNF170 / Fold change vs veh, RNF170 / RFU, ZNF28 / Fold change vs veh, ZNF28 / RFU, RNGTT / Fold change vs veh, RNGTT / RFU, OGT / Fold change vs veh, OGT / RFU, BRD1 / Fold change vs veh, BRD1 / RFU, MARS / Fold change vs veh, MARS / RFU, ZNF655 / Fold change vs veh, ZNF655 / RFU, FAHD1 / Fold change vs veh, FAHD1 / RFU, BDP1 / Fold change vs veh, BDP1 / RFU, LRRCC1 / Fold change vs veh, LRRCC1 / RFU, ARID1A / Fold change vs veh, ARID1A / RFU, ZNF146 / Fold change vs veh, ZNF146 / RFU, ZNF330 / Fold change vs veh, ZNF330 / RFU, GPN3 / Fold change vs veh, GPN3 / RFU, C9orf123 / Fold change vs veh, C9orf123 / RFU, N4BP2L2 / Fold change vs veh, N4BP2L2 / RFU, ARFIP1 / Fold change vs veh, ARFIP1 / RFU, FAM179B / Fold change vs veh, FAM179B / RFU, BCL10 / Fold change vs veh, BCL10 / RFU, UHRF1BP1L / Fold change vs veh, UHRF1BP1L / RFU, BET1 / Fold change vs veh, BET1 / RFU, CNOT2 / Fold change vs veh, CNOT2 / RFU, ZNF268 / Fold change vs veh, ZNF268 / Fold change vs veh, ZNF507 / RFU, DGCR2 / Fold change vs veh, DGCR2 / RFU, WDSUB1 / Fold change vs veh, WDSUB1 / Fold change vs veh, HSP90B1 /// MIR3652 / RFU, ADSS / Fold change vs veh, ADSS / RFU, GK / Fold change vs veh, GK / RFU, ZNF148 / Fold change vs veh, ZNF148 / RFU, TAF9 / Fold change vs veh, TAF9 / RFU, SLC1A5 / Fold change vs veh, SLC1A5 / RFU, SLMO2 / Fold change vs veh, SLMO2 / RFU, ABCC4 / Fold change vs veh, ABCC4 / RFU, LOC101060439 /// RAP1B / Fold change vs veh, LOC101060439 /// RAP1B / RFU, RFX7 / Fold change vs veh, RFX7 / RFU, GTPBP10 / Fold change vs veh, GTPBP10 / RFU, CNEP1R1 / Fold change vs veh, CNEP1R1 / RFU, BIVM-ERCC5 /// ERCC5 / Fold change vs veh, BIVM-ERCC5 /// ERCC5 / RFU, ILF3 / Fold change vs veh, ILF3 / RFU 11762660_at / Fold change /veh 11762660_at / RFU VCAN (11757783_s_at) / Fold change /veh VCAN (11757783_s_at) / RFU DDX43 (11728927_at) / Fold change /veh DDX43 (11728927_at) / RFU KRT8 (11758188_x_at) / Fold change /veh KRT8 (11758188_x_at) / RFU NKD1 (11759106_at) / Fold change /veh NKD1 (11759106_at) / RFU SRD5A1 (11742802_a_at) / Fold change /veh SRD5A1 (11742802_a_at) / RFU TPSAB1 /// TPSB2 (11721975_s_at) / Fold change /veh TPSAB1 /// TPSB2 (11721975_s_at) / RFU GSTM3 (11746129_a_at) / Fold change /veh GSTM3 (11746129_a_at) / RFU IL23R (11737362_x_at) / Fold change /veh IL23R (11737362_x_at) / RFU TMEM51 (11727254_a_at) / Fold change /veh TMEM51 (11727254_a_at) / RFU PIWIL2 (11732686_x_at) / Fold change /veh PIWIL2 (11732686_x_at) / RFU ORM1 (11744905_x_at) / Fold change /veh ORM1 (11744905_x_at) / RFU CCDC152 (11743942_at) / Fold change /veh CCDC152 (11743942_at) / RFU ECM1 (11717891_a_at) / Fold change /veh ECM1 (11717891_a_at) / RFU IL23R (11748794_a_at) / Fold change /veh IL23R (11748794_a_at) / RFU TNFAIP8L3 (11732012_x_at) / Fold change /veh TNFAIP8L3 (11732012_x_at) / RFU MBOAT4 (11741988_at) / Fold change /veh MBOAT4 (11741988_at) / RFU 11764193_at / Fold change /veh 11764193_at / RFU TMEM53 (11763286_at) / Fold change /veh TMEM53 (11763286_at) / RFU MAGEB2 (11727129_at) / Fold change /veh MAGEB2 (11727129_at) / RFU TMEM200A (11744735_a_at) / Fold change /veh TMEM200A (11744735_a_at) / RFU CCDC152 (11751479_a_at) / Fold change /veh CCDC152 (11751479_a_at) / RFU FAM211A (11726209_a_at) / Fold change /veh FAM211A (11726209_a_at) / RFU RGS16 (11746705_a_at) / Fold change /veh RGS16 (11746705_a_at) / RFU VCAN (11755009_s_at) / Fold change /veh VCAN (11755009_s_at) / RFU RHOB (11743442_s_at) / Fold change /veh RHOB (11743442_s_at) / RFU RGS16 (11720943_a_at) / Fold change /veh RGS16 (11720943_a_at) / RFU RGS16 (11720944_at) / Fold change /veh RGS16 (11720944_at) / RFU, VPS4B / Fold change vs veh, VPS4B / RFU, CREB1 / Fold change vs veh, CREB1 / RFU, DNAJC13 / Fold change vs veh, DNAJC13 / RFU, GNAQ / Fold change vs veh, GNAQ / RFU, CDK5R1 / Fold change vs veh, CDK5R1 / RFU, ZRANB3 / Fold change vs veh, ZRANB3 / RFU, CUL4A / Fold change vs veh, CUL4A / RFU, CCNY / Fold change vs veh, CCNY / RFU, UFL1 / Fold change vs veh, UFL1 / RFU, COG3 / Fold change vs veh, COG3 / RFU, DIAPH2 / Fold change vs veh, DIAPH2 / RFU, SKA2 / Fold change vs veh, SKA2 / RFU, AFF3 / Fold change vs veh, AFF3 / RFU, LMF1 / Fold change vs veh, LMF1 / RFU, IPO11 / Fold change vs veh, IPO11 / RFU, DFFB / Fold change vs veh, DFFB / RFU, FOXP1 / Fold change vs veh, FOXP1 / RFU, CARD8 / Fold change vs veh, CARD8 / RFU, STRN3 / Fold change vs veh, STRN3 / RFU, ADK / Fold change vs veh, ADK / RFU, RASSF2 / Fold change vs veh, RASSF2 / RFU, WIPF1 / Fold change vs veh, WIPF1 / RFU, LARP1B / Fold change vs veh, LARP1B / RFU, RASA1 / Fold change vs veh, RASA1 / RFU, RB1 / Fold change vs veh, RB1 / RFU, PPFIA1 / Fold change vs veh, PPFIA1 / RFU, MAT2A / Fold change vs veh, MAT2A / RFU, CCT5 / Fold change vs veh, CCT5 / RFU, WDR92 / Fold change vs veh, WDR92 / RFU, CUX1 / Fold change vs veh, CUX1 / RFU, TTC7A / Fold change vs veh, TTC7A / RFU, TMEM135 / Fold change vs veh, TMEM135 / RFU, DEPTOR / Fold change vs veh, DEPTOR / RFU, CPM / Fold change vs veh, CPM / RFU, DNAJB6 / Fold change vs veh, DNAJB6 / RFU, CACNA2D3 / Fold change vs veh, CACNA2D3 / RFU, DTX4 / Fold change vs veh, DTX4 / RFU, TFCP2 / Fold change vs veh, TFCP2 / RFU, GMCL1 /// GMCL1P1 / Fold change vs veh, GMCL1 /// GMCL1P1 / RFU, AEBP2 / Fold change vs veh, AEBP2 / RFU, SNHG1 /// SNORD22 /// SNORD25 /// SNORD26 /// SNORD27 /// SNORD28 /// SNORD29 /// SNORD31 / Fold change vs veh, SNHG1 /// SNORD22 /// SNORD25 /// SNORD26 /// SNORD27 /// SNORD28 /// SNORD29 /// SNORD31 / Fold change (Aza/veh), C12orf56 (ProbeSet 11735607_a_at) / Fold change (ACY-1035/veh), C12orf56 (ProbeSet 11735607_a_at) / Fold change (Aza/veh), FGFR1OP (ProbeSet 11751329_s_at) / Fold change (ACY-1035/veh), FGFR1OP (ProbeSet 11751329_s_at) / Fold change (Aza/veh), VPS36 (ProbeSet 11739960_a_at) / Fold change (ACY-1035/veh), VPS36 (ProbeSet 11739960_a_at) / RFU SYPL1 (11715823_x_at) / Fold change /veh SYPL1 (11715823_x_at) / RFU IGFBP7 (11715501_s_at) / Fold change /veh IGFBP7 (11715501_s_at) / RFU REEP3 (11722064_at) / Fold change /veh REEP3 (11722064_at) / RFU IGLL1 (11728026_x_at) / Fold change /veh IGLL1 (11728026_x_at): dose or concentration left out as unconfirmed
# Details: ProbeSet 11755436_x_at; LIST B
structure (smiles),measurement,value
Nc1ncn([C@@H]2O[C@H](CO)[C@@H](O)[C@H]2O)c(=O)n1 [azacitidine],"Fold change vs veh, ARID1A",1.10
